Data on 4 substances can be found in patent publication US12071626B2, “Splice-switching oligonucleotides and methods of use” (priority 2015, dated 2024).

What all share (format): cell-based, human
For one data set, the system named is pEGFR. The data set is described as follows: pEGFR Western blot in LNCaP cells after EGF exposure. The following applies: 250 nM SSO, 72 hrs post transfection, 10 ng/ml EGF for 10 minutes, normalized to GAPDH and vehicle control. As to the method:
LNCaP cells were treated with transfection reagent alone or with 250 nM EGRF exon 16 or 18 SSOs. 72 hrs post transfection, cells were exposed to 10 ng/ml EGF for 10 minutes before lysing and haresting total protein. pEGFR and GAPDH were visualized via Western blot and imaged and quantified on a Licor Odyssey Fc. pEGFR quantities are normalized to GAPDH and then to vehicle control.
LNCaP cells were treated with transfection reagent alone or with 250 nM EGFR exon 16 or 18 SSOs. 72 hours post transfection, cells were exposed to 10 ng/mL EGF for 10 minutes before lysing and harvesting total protein. pEGFR and GAPDH were visualized via Odyssey Fc. pEGFR quantities are normalized to GAPDH and then to vehicle control.
A general note: A western blot detects proteins with antibodies after separation by electrophoresis.

The subject of data set [1] is EGFR pre-mRNA. The data set is described as follows: RT-PCR (endpoint, gel) of EGFR exon 16 / exon 18 skipping in LNCaP cells. The following applies: increasing concentrations of SSO vs transfection reagent alone, RNA 72 hrs after transfection. As to the method: LNCaP cells were treated with transfection reagent alone or with increasing concentrations of exon 16 (left) or exon 18 (right) SSO. RNA was harvested 72 hrs after transfection. Targets were visualized by RT-PCR using primers located in the exons flanking the target exon, as depicted above the gel images. Products were confirmed by sequencing.
LNCaP cells were treated with transfection reagent alone or with increasing concentrations of exon 16 (SSO #1, left in FIG. 8) or exon 18 (SSO #2, right in FIG. 8). RNA was harvested 72 hours after transfection. Targets were visualized by RT-PCR using primers located in the exons flanking the target exon, as depicted above the gel images in FIG. 8. Products were confirmed by sequencing. The primers used were: […]

For data set [2], the system named is EGFR pre-mRNA. The data set is described as follows: qPCR quantitation of EGFR exon 16 / exon 18 skipped products. The settings on record: increasing concentrations of SSO. The text has this:
qPCR primers correspond to those used in FIG. 10 and endpoint PCR primers correspond to those used in FIG. 8.
(Real-time PCR tracks product formation cycle by cycle.)

Data set [3] concerns MDA PCa 2b prostate cancer cells. The data set is described as follows: Colony forming ability of MDA PCa 2b prostate cancer cells. The following applies: MDA PCa 2b cells.
A further data set deals with AR-V7 protein. The data set is described as follows: AR-V7 protein in LN95 prostate cancer cells transfected with SSO. The following applies: increasing concentrations of SSO.
A further data set has as its system AR-V7 RNA. The data set is described as follows: AR-V7 RNA by QRT-PCR in prostate cancer cells transfected with SSO. The following applies: RNA 72 hours after transfection, normalized to TBP. Here is the method: LN95, VCaP, 22Rv1 and MDA PCa 2b cells were treated with control scrambled SSO or with increasing concentrations of AR-V7 SSO, as indicated. RNA was harvested 72 hours after transfection for cDNA production and QRT-PCR analysis. Ct values were normalized to TBP, TATA-binding protein, in each sample and used to generate relative expression values.
(§1) MDA PCa 2b cells were treated with transfection reagent alone or with increasing concentrations of AR45 SSO, as indicated. RNA was harvested 72 hours after transfection for cDNA production and QRT-PCR analysis. Ct values were normalized to TBP, TATA-binding protein, in each sample and used to generate relative expression values.

For data set [4], the system named is LN95 prostate cancer cells. The data set is described as follows: Proliferation of LN95 prostate cancer cells.
In a further data set the test system is wild type AR. The data set is described as follows: Wild type (full-length) AR RNA by QRT-PCR in MDA PCa 2b cells transfected with SSO. The settings on record: increasing concentrations of SSO vs transfection reagent alone, RNA 72 hours after transfection, normalized to TBP. As to the method:
as §1

The subject of the next data set is AR signaling. The data set is described as follows: AR signaling: QRT-PCR of known AR induced and AR repressed targets in MDA PCa 2b cells. The settings on record: 400 nM SSO vs transfection reagent alone, RNA 72 hours after transfection. As to the method:
MDA Pca 2b cells were treated with transfection reagent alone or with 400 nM AR45 SSO. RNA was harvested 72 hours after transfection for cDNA production and QRT-PCR analysis (Light green=known AR induced targets, dark green=known AR repressed targets).

Another data set concerns AR45. The data set is described as follows: AR45 RNA by QRT-PCR in MDA PCa 2b cells transfected with SSO. The settings on record: increasing concentrations of SSO vs transfection reagent alone, RNA 72 hours after transfection, normalized to TBP. Here is the method: as §1

“Also recorded” adds a separate entry of the source. In the oligonucleotide strings, read from the 5' end, every base follows the letter of its sugar. An asterisk marks phosphorothioate; unmarked linkages are phosphodiester. Other units and linkages are bracketed, terminal groups are in braces. A string of capitals states the bases alone. m = 2'-O-methyl

For the substance “mC*mC*mA*mG*mG*mG*mA*mC*mC*mU*mU*mA*mC*mC*mU*mU*mA*mU [EGFR exon 18 SSO]”, the results for the pEGFR protein expression result in the data set with pEGFR and in the data set with pEGFR (listed as EGRF exon 18 SSO) were “block pEGFR protein expression” and “inhibition of pEGFR expression”, respectively. For the same substance, the “production of dominant-negative EGFR variants (exon skipping, RT-PCR gel)” value in the data set with EGFR pre-mRNA [1] is listed as “drive production of dominant-negative EGFR variants in a dose-dependent manner”. Also, the “production of dominant-negative EGFR variants (quantitated, qPCR of skipped product)” value in the data set on EGFR pre-mRNA [2] is reported as “drive production of dominant-negative EGFR variants in a dose-dependent manner”.

For “mG*mC*mC*mA*mA*mC*mC*mC*mG*mG*mA*mA*mU*mU*mU*mU*mU*mC [AR-V7 SSO]”, in data set [3], the colony forming ability result is “inhibiting colony forming ability”. In addition, the AR-V7 protein entry with AR-V7 protein is “inhibiting AR-V7 RNA (left) and protein (right) in a dose-dependent manner”. For the same substance, the “AR-V7 RNA relative expression” value in the data set on AR-V7 RNA (22Rv1 cells, vs control scrambled SSO) is “inhibiting AR-V7 RNA; also recorded: Dose-dependent inhibition of AR-V7”; with AR-V7 RNA (LN95 cells, increasing concentrations of SSO vs control scrambled SSO), “inhibiting AR-V7 RNA (left) and protein (right) in a dose-dependent manner; also recorded: Dose-dependent inhibition of AR-V7”; with AR-V7 RNA (MDA PCa 2b cells, vs control scrambled SSO), “inhibiting AR-V7 RNA; also recorded: Dose-dependent inhibition of AR-V7”; in the data set on AR-V7 RNA (VCaP cells, vs control scrambled SSO), “inhibiting AR-V7 RNA; also recorded: Dose-dependent inhibition of AR-V7”. For the same substance, in data set [4], the proliferation entry is given as “inhibiting proliferation”. Besides, in [4] (in the presence of enzalutmide), the “proliferation in the presence of enzalutamide” value is “inhibiting proliferation”.

For the substance “mG*mC*mU*mG*mU*mG*mA*mA*mC*mA*mC*mU*mU*mA*mC*mC*mC*mA [EGFR exon 16 SSO]”, the pEGFR protein expression entry with pEGFR was “block pEGFR protein expression”; in the data set with pEGFR (listed as EGRF exon 16 SSO) it was “inhibition of pEGFR expression”. Moreover, the “production of dominant-negative EGFR variants (exon skipping, RT-PCR gel)” value in the data set with EGFR pre-mRNA [1] is on record as “drive production of dominant-negative EGFR variants in a dose-dependent manner”. The “production of dominant-negative EGFR variants (quantitated, qPCR of skipped product)” value with EGFR pre-mRNA [2] is “drive production of dominant-negative EGFR variants in a dose-dependent manner”.

Consider “mG*mG*mA*mA*mA*mA*mA*mC*mU*mU*mA*mC*mC*mG*mC*mA*mU*mG [AR45 SSO]”, for which, in the data set on wild type AR, the “expression of wild type (full-length) AR RNA” value was “decreasing wild type AR and AR-V7; also recorded: decreasing expression of full-length AR”. Besides, the “AR signaling (RNAs of AR induced and AR repressed targets)” value in the data set on AR signaling is “modulating AR signaling; also recorded: Modulation of AR signaling”. For the same substance, the “production of AR45 (RNA relative expression)” value in the data set with AR45 is given as “drives production of the dominant-negative AR variant, AR45”. Besides, the “expression of AR-V7 RNA” value in the data set with AR-V7 RNA (MDA PCa 2b cells, increasing concentrations of SSO vs transfection reagent alone) is “decreasing wild type AR and AR-V7; also recorded: decreasing expression of full-length AR and the constitutively active AR variant, AR-V7”.
